Test system: subjects with NASH
Test: Clinical Trial A: liver biopsy histology (NASH-CRN, Kleiner fibrosis classification) at trial week 72
Format: in vivo, human
Conditions: for Worsening of liver fibrosis stage determined via liver biopsy at end of trial compared to baseline, Proportion of subjects: all randomised subjects
From the text: NASH diagnosis may further include histological evidence of NASH with an NAFLD activity score (NAS) of more than 4. In some embodiments the term “NAFLD activity score” as used herein refers to the unweighted sum of the individual scores of steatosis (score 0-3), lobular inflammation (score 0-3), and hepatocyte ballooning (score 0-2) determined by liver biopsy histology according to NASH-CRN; thus, NAS is in the range of 0 to 8. In some embodiments NASH-CRN is as published in Kleiner et al. Hepatology. 2005; 41(6):1313-21 (e.g. Table 1) and Brunt et al. World J Gastroenterol. 2010; 16(42):5286-96. In some embodiments the term “steatosis” as used herein refers to liver biopsy histology showing low- to medium-power evaluation of parenchymal involvement by steatosis and is one of the stages with a score selected from the group consisting of “0” (<5%), “1” (5%-33%), “2” (>33%-66%), and “3” (>66%) according to NASH-CRN. In some embodiments the term “lobular inflammation” as used herein refers to the overall assessment of all inflammatory foci in liver biopsy histology and is one of the stages with a score selected from the group consisting of “0” (no foci), “1” (<2 foci per 200 times magnification field), “2” (2-4 foci per 200 times magnification field) and “3” (>4 foci per 200 times magnification field) according to NASH-CRN. In some embodiments the term “hepatocyte ballooning” as used herein refers to liver biopsy histology showing one of the stages with a score selected from the group consisting of “0” (none), “1” (few balloon cells) and “2” (many cells/prominent ballooning) according to NASH-CRN.
In some embodiments the method of the invention provides resolution of NASH. In some embodiments the term “resolution of NASH” as used herein refers to the subject no longer fulfilling the criteria for a NASH diagnosis. In some embodiments the term “resolution of NASH” refers to a liver biopsy histology showing (i) no more than mild residual inflammatory cells (i.e. inflammation score 0 or 1 according to NASH-CRN), (ii) no hepatocyte ballooning (i.e. hepatocyte ballooning score of 0 according to NASH-CRN), and (iii) any value for steatosis (i.e. steatosis score of 0-3 according to NASH-CRN). In some embodiments the method of the invention provides an improvement of lobular inflammation and/or hepatocyte ballooning. In some embodiments the term “improvement of lobular inflammation” as used herein refers to reduction by at least one stage of lobular inflammation (score 0-3) as defined herein; for example, reduction from a score 3 to a score 1. In some embodiments the term “improvement of hepatocyte ballooning” as used herein refers to reduction by at least one stage of hepatocyte ballooning (score 0-2) as defined herein; for example, reduction from a score 2 to a score 0.
In some embodiments the term “fibrosis” as used herein refers to the fibrosis stage in NASH described by the Kleiner fibrosis classification. In some embodiments the terms “Kleiner fibrosis classification” or “fibrosis stage” are used interchangeably herein and refer to the classification as defined in Kleiner et al. Hepatology, 2005; 41(6):1313-21 which consists of the stages selected from the group consisting of “0” (absence of fibrosis), “1” (portal/perisinusoidal fibrosis), “2” (perisinusoidal and portal/periportal fibrosis), “3” (septal or bridging fibrosis), and “4” (cirrhosis). In some embodiments the method of the invention provides no worsening of liver fibrosis. In some embodiments the terms “no worsening of liver fibrosis” or “no worsening of liver fibrosis stage” as used interchangeably herein refers to no increase of at least one stage of the Kleiner fibrosis classification.
A 72-week, randomised, double-blind, placebo-controlled, six-armed, parallel group, multicentre, multi-national phase 2 trial comparing once daily (OD) administration of semaglutide in three different doses (0.1 mg, 0.2 mg and 0.4 mg) with placebo in subjects with NASH was carried out. […]

[1] = 0.1 mg OD s.c., week 72, Fibrosis stage 1-3 at baseline (all randomised subjects)
[2] = 0.1 mg OD s.c., week 72, Fibrosis stage 1 at baseline
[3] = 0.1 mg OD s.c., week 72, Fibrosis stage 2 at baseline
[4] = 0.1 mg OD s.c., week 72, Fibrosis stage 2 or 3 at baseline
[5] = 0.1 mg OD s.c., week 72, Fibrosis stage 3 at baseline
[6] = 0.2 mg OD s.c., week 72, Fibrosis stage 1-3 at baseline (all randomised subjects)
[7] = 0.2 mg OD s.c., week 72, Fibrosis stage 1 at baseline
[8] = 0.2 mg OD s.c., week 72, Fibrosis stage 2 at baseline
[9] = 0.2 mg OD s.c., week 72, Fibrosis stage 2 or 3 at baseline
[10] = 0.2 mg OD s.c., week 72, Fibrosis stage 3 at baseline
[11] = 0.4 mg OD s.c., week 72, Fibrosis stage 1-3 at baseline (all randomised subjects)
[12] = 0.4 mg OD s.c., week 72, Fibrosis stage 1 at baseline
[13] = 0.4 mg OD s.c., week 72, Fibrosis stage 2 at baseline
[14] = 0.4 mg OD s.c., week 72, Fibrosis stage 2 or 3 at baseline
[15] = 0.4 mg OD s.c., week 72, Fibrosis stage 3 at baseline
[16] = all tested semaglutide dosages, liver fibrosis stage 1-3 at baseline

N-epsilon26-[2-(2-{2-[2-(2-{2-[(S)-4-Carboxy-4-(17-carboxyheptadecanoyl-amino)butyrylamino]ethoxy}ethoxy)acetylamino]ethoxy}ethoxy)acetyl] [Aib8, Arg34]GLP-1-(7-37) [Semaglutide]
Improvement of hepatocyte ballooning at end of trial compared to baseline, proportion of subjects [1]: 61.3% | Improvement of lobular inflammation at end of trial compared to baseline, proportion of subjects [1]: 41.3% | Improvement of steatosis at end of trial compared to baseline, proportion of subjects [1]: 52.5% | Resolution of NASH and no worsening in liver fibrosis at end of trial, proportion of subjects [1]: 43.8 (0.0023) % | Resolution of NASH at end of trial, proportion of subjects [1]: 47.5% | Improvement of hepatocyte ballooning at end of trial compared to baseline, proportion of subjects [2]: 60.9% | Improvement of lobular inflammation at end of trial compared to baseline, proportion of subjects [2]: 34.8% | Improvement of steatosis at end of trial compared to baseline, proportion of subjects [2]: 56.5% | Resolution of NASH and no worsening in liver fibrosis at end of trial, proportion of subjects [2]: 52.2% | Resolution of NASH at end of trial, proportion of subjects [2]: 60.9% | Improvement of hepatocyte ballooning at end of trial compared to baseline, proportion of subjects [3]: 66.7% | Improvement of lobular inflammation at end of trial compared to baseline, proportion of subjects [3]: 33.3% | Improvement of steatosis at end of trial compared to baseline, proportion of subjects [3]: 61.1% | Resolution of NASH and no worsening in liver fibrosis at end of trial, proportion of subjects [3]: 55.6% | Resolution of NASH at end of trial, proportion of subjects [3]: 55.6% | Improvement of hepatocyte ballooning at end of trial compared to baseline, proportion of subjects [4]: 61.4% | Improvement of lobular inflammation at end of trial compared to baseline, proportion of subjects [4]: 43.9% | Improvement of steatosis at end of trial compared to baseline, proportion of subjects [4]: 50.9% | Resolution of NASH and no worsening in liver fibrosis at end of trial, proportion of subjects [4]: 40.4 (0.0100) % | Resolution of NASH at end of trial, proportion of subjects [4]: 42.1% | Improvement of hepatocyte ballooning at end of trial compared to baseline, proportion of subjects [5]: 59.0% | Improvement of lobular inflammation at end of trial compared to baseline, proportion of subjects [5]: 48.7% | Improvement of steatosis at end of trial compared to baseline, proportion of subjects [5]: 46.2% | Resolution of NASH and no worsening in liver fibrosis at end of trial, proportion of subjects [5]: 33.3% | Resolution of NASH at end of trial, proportion of subjects [5]: 35.9% | Worsening of liver fibrosis stage determined via liver biopsy at end of trial compared to baseline, Proportion of subjects (0.1 mg OD s.c., week 72): 10.0% | Improvement of hepatocyte ballooning at end of trial compared to baseline, proportion of subjects [6]: 70.5% | Improvement of lobular inflammation at end of trial compared to baseline, proportion of subjects [6]: 47.4% | Improvement of steatosis at end of trial compared to baseline, proportion of subjects [6]: 60.3% | Resolution of NASH and no worsening in liver fibrosis at end of trial, proportion of subjects [6]: 38.5 (0.0138) % | Resolution of NASH at end of trial, proportion of subjects [6]: 46.2% | Improvement of hepatocyte ballooning at end of trial compared to baseline, proportion of subjects [7]: 84.2% | Improvement of lobular inflammation at end of trial compared to baseline, proportion of subjects [7]: 42.1% | Improvement of steatosis at end of trial compared to baseline, proportion of subjects [7]: 63.2% | Resolution of NASH and no worsening in liver fibrosis at end of trial, proportion of subjects [7]: 47.4% | Resolution of NASH at end of trial, proportion of subjects [7]: 68.4% | Improvement of hepatocyte ballooning at end of trial compared to baseline, proportion of subjects [8]: 72.2% | Improvement of lobular inflammation at end of trial compared to baseline, proportion of subjects [8]: 38.9% | Improvement of steatosis at end of trial compared to baseline, proportion of subjects [8]: 66.7% | Resolution of NASH and no worsening in liver fibrosis at end of trial, proportion of subjects [8]: 55.6% | Resolution of NASH at end of trial, proportion of subjects [8]: 61.1% | Improvement of hepatocyte ballooning at end of trial compared to baseline, proportion of subjects [9]: 66.1% | Improvement of lobular inflammation at end of trial compared to baseline, proportion of subjects [9]: 49.2% | Improvement of steatosis at end of trial compared to baseline, proportion of subjects [9]: 59.3% | Resolution of NASH and no worsening in liver fibrosis at end of trial, proportion of subjects [9]: 35.6 (0.0359) % | Resolution of NASH at end of trial, proportion of subjects [9]: 39.0% | Improvement of hepatocyte ballooning at end of trial compared to baseline, proportion of subjects [10]: 63.4% | Improvement of lobular inflammation at end of trial compared to baseline, proportion of subjects [10]: 53.7% | Improvement of steatosis at end of trial compared to baseline, proportion of subjects [10]: 56.1% | Resolution of NASH and no worsening in liver fibrosis at end of trial, proportion of subjects [10]: 26.8% | Resolution of NASH at end of trial, proportion of subjects [10]: 29.3% | Worsening of liver fibrosis stage determined via liver biopsy at end of trial compared to baseline, Proportion of subjects (0.2 mg OD s.c., week 72): 7.7% | Improvement of hepatocyte ballooning at end of trial compared to baseline, proportion of subjects [11]: 74.4% | Improvement of lobular inflammation at end of trial compared to baseline, proportion of subjects [11]: 37.8% | Improvement of steatosis at end of trial compared to baseline, proportion of subjects [11]: 63.4% | Resolution of NASH and no worsening in liver fibrosis at end of trial, proportion of subjects [11]: 56.1 (<0.0001) % | Resolution of NASH at end of trial, proportion of subjects [11]: 61.0% | Improvement of hepatocyte ballooning at end of trial compared to baseline, proportion of subjects [12]: 57.7% | Improvement of lobular inflammation at end of trial compared to baseline, proportion of subjects [12]: 15.4% | Improvement of steatosis at end of trial compared to baseline, proportion of subjects [12]: 53.8% | Resolution of NASH and no worsening in liver fibrosis at end of trial, proportion of subjects [12]: 50.0% | Resolution of NASH at end of trial, proportion of subjects [12]: 53.8% | Improvement of hepatocyte ballooning at end of trial compared to baseline, proportion of subjects [13]: 78.6% | Improvement of lobular inflammation at end of trial compared to baseline, proportion of subjects [13]: 50.0% | Improvement of steatosis at end of trial compared to baseline, proportion of subjects [13]: 71.4% | Resolution of NASH and no worsening in liver fibrosis at end of trial, proportion of subjects [13]: 64.3% | Resolution of NASH at end of trial, proportion of subjects [13]: 78.6% | Improvement of hepatocyte ballooning at end of trial compared to baseline, proportion of subjects [14]: 82.1% | Improvement of lobular inflammation at end of trial compared to baseline, proportion of subjects [14]: 48.2% | Improvement of steatosis at end of trial compared to baseline, proportion of subjects [14]: 67.9% | Resolution of NASH and no worsening in liver fibrosis at end of trial, proportion of subjects [14]: 58.9 (<0.0001) % | Resolution of NASH at end of trial, proportion of subjects [14]: 64.3% | Improvement of hepatocyte ballooning at end of trial compared to baseline, proportion of subjects [15]: 83.3% | Improvement of lobular inflammation at end of trial compared to baseline, proportion of subjects [15]: 47.6% | Improvement of steatosis at end of trial compared to baseline, proportion of subjects [15]: 66.7% | Resolution of NASH and no worsening in liver fibrosis at end of trial, proportion of subjects [15]: 75.1% | Resolution of NASH at end of trial, proportion of subjects [15]: 59.5% | Worsening of liver fibrosis stage determined via liver biopsy at end of trial compared to baseline, Proportion of subjects (0.4 mg OD s.c., week 72): 4.9% | Worsening of liver fibrosis stage compared to placebo (in words) (all semaglutide dosages tested, week 72): lower proportion of subjects | Resolution of NASH and no worsening in liver fibrosis compared to placebo (in words) [16]: achieved by significantly more subjects compared to placebo | Resolution of NASH compared to placebo (in words) [16]: achieved by significantly more subjects compared to placebo

Reference: patent US11478533B2, “Semaglutide for use in medicine” (Novo Nordisk A/S, priority 2020, dated 2022)
